Reference: PubChem BioAssay AID743267 (Broad Institute, 2014)

System: human bronchial epithelial cells, CFTR corrector, plate reader
Test: CFTR ΔF508 corrector activity in bronchial cells, dose response, human bronchial epithelial cells, plate reader, cherry-pick, two tests (AID 743267)
Details: measured here: test 1 replicate run

SMILES	AC50 [µM]
CN1c2ccc(-c3ccc(F)cc3)cc2[C@H]2[C@H](CCN2S(=O)(=O)c2cccc(F)c2)[C@@H]1CO	7.66
O=C(Cc1ccccc1)N1CC(=O)N2[C@H](CO)[C@@H](c3ccc(-c4ccccc4)cc3)[C@@H]2C1	24.6
O=C(C1CC1)N1CC(=O)N2[C@H](CO)[C@@H](c3ccc(-c4ccccc4F)cc3)[C@@H]2C1	8.99
C[C@H]1CCCCO[C@@H](CN(C)C(=O)C2CCCCC2)[C@@H](C)CN([C@@H](C)CO)C(=O)c2cc(NC(=O)Nc3ccc(C(F)(F)F)cc3)ccc2O1	15.8
N#C[C@@H]1[C@H](c2ccc(-c3cccc(F)c3)cc2)[C@H](CO)N1C(=O)NC1CCCC1	> 50
C[C@@H]1CN([C@H](C)CO)C(=O)c2cc(NS(=O)(=O)c3ccc(Cl)cc3)ccc2O[C@@H]1CN(C)Cc1ccc(-c2ccccc2)cc1	46.3
Cc1ccc(-c2ccc3c(c2)O[C@H](CN(C)Cc2ccccn2)[C@@H](C)CN([C@@H](C)CO)S3(=O)=O)cc1	18
N#Cc1ccc(-c2ccc3c(c2)[C@H]2[C@H](CCN2S(=O)(=O)c2ccccc2F)[C@@H](CO)N3)cc1	6.96
COc1ccc(CNC(=O)c2cc3c(c(-c4cccc(-c5ccc(C#N)cc5)c4)n2)[C@@H](CCO)N([S@](=O)C(C)(C)C)C3)cc1	> 50
C[C@H](CO)N1C[C@H](C)[C@H](CN(C)C(=O)NC2CCCCC2)Oc2cc(C#Cc3ccc(F)cc3)ccc2S1(=O)=O	7.62
CCS(=O)(=O)N1CC(=O)N2[C@H](CO)[C@@H](c3ccc(C#CCC(C)C)cc3)[C@@H]2C1	0.0676
COc1ccc(-c2ccc3c(c2)[C@H]2[C@H](CCN2S(=O)(=O)c2ccc(OC)cc2)[C@@H](CO)N3)cc1	7.37
COc1cccc(S(=O)(=O)N2C[C@@H]3N[C@H](C2)C3c2ccc(-c3cccc(C)c3)cc2)c1 (stereo partly drawn)	16
C[C@H](CO)N1C[C@H](C)[C@@H](CN(C)Cc2ccc(Cl)c(Cl)c2)Oc2ccc(NC(=O)Nc3ccc(C(F)(F)F)cc3)cc2CC1=O	16

Same assay, conditions: measured here: test 2 replicate run

SMILES	AC50 [µM]
O=c1[nH]c(CN2CCN(c3ccc(O)cc3)CC2)nc2scc(-c3ccc(Cl)cc3)c12	6.45
COc1ccc2[nH]c(C(=O)N/N=C/c3ccc(O)cc3O)cc2c1	4.83
CC(=O)N1CCc2cc(S(=O)(=O)N3c4ccccc4CC3C)ccc21 (stereo not drawn)	6.73
Cc1cc2c(cc1C)C(c1ccccc1OC(C)C)CC(=O)N2 (stereo not drawn)	1.85
CC(=O)O[C@H]1C(=O)[C@@]2(C)[C@H]([C@H](OC(=O)c3ccccc3)[C@]3(O)C[C@H](OC(=O)[C@H](O)C(NC(=O)c4ccccc4)c4ccccc4)C(C)=C1C3(C)C)[C@]1(OC(C)=O)CO[C@@H]1C[C@@H]2O (stereo partly drawn)	3.59
COc1cccc(C2c3cc4c(cc3OC(NNC(N)=O)C2C)OCO4)c1O (stereo not drawn)	3.18
Cn1nccc1C(=O)N/N=C/c1c(O)ccc2ccccc12	19.2
COc1cccc2c1C(=O)c1c(O)c3c(c(O)c1C2=O)CC(O)(C(=O)CO)CC3OC1CC(N(C)C)C(O)C(C)O1 (stereo not drawn)	10.1
COc1ccc(NC(=O)C2(C)Cc3c(-c4cccc(NC(C)=O)c4)ccnc3O2)cc1 (stereo not drawn)	4.58
O=S(=O)(c1ccc(Br)cc1)N1CCCc2ccccc21	> 50
Clc1cccc(-c2ccc(C=Nc3ccc(N4CCOCC4)cc3)o2)c1Cl	> 50
COC(=O)COc1cccc2c(=O)n(CC(=O)NCc3ccccc3)ccc12	5.25
Cc1ccc2cc(CN(CC3CCCO3)C(=S)Nc3ccccc3)c(=O)[nH]c2c1C (stereo not drawn)	3.16
NC(=S)NN=Cc1nccc2c(N)cccc12	3.21
N#Cc1nc(NCC(F)F)nc(Nc2cc(F)cc(F)c2)n1	16
O=C(c1cccc(S(=O)(=O)N2CCOCC2)c1)N1CCCC(C(F)(F)F)C1 (stereo not drawn)	39.2
Nc1ccn([C@@H]2O[C@H](CO)[C@@H](O)[C@@H]2O)c(=O)n1	0.541
Cc1ccc(C(=O)NC(=S)NNC(=O)c2ccccc2O)cc1	> 50
O=P(Oc1ccc(-c2ccccc2)cc1)(N1CC1)N1CC1	> 50
COCCCNc1nnc(Cc2ccc(Cl)cc2)c(=O)[nH]1	3.78
COc1ccccc1NC(=O)CSc1ccc(-c2ccccn2)nn1	20
CCOC(=O)c1c(C)[nH]c(C(=O)N/N=C/c2ccc(OC)c(OC)c2)c1C	2.93
COc1ccc(S(=O)(=O)N2CCN(CCOc3ccccc3Cl)CC2)cc1OC	38.7

SMILES	AC50 [µM]
CCN1CCN(c2cc(C)c3cc(NC(=O)c4ccc(OC)c(OC)c4)ccc3n2)CC1	1.61
CCCCN1C(=O)/C(=C/C=C2\Oc3ccccc3N2CC)SC1=S	9.56
N#C/C(=C(/O)c1ccc(Br)s1)c1nc2ccccc2[nH]1	3.88
CC(=O)Oc1ccc(N2C(=O)c3cccc4c([N+](=O)[O-])ccc(c34)C2=O)cc1	20.6
Cc1cc2nnc(SCC(=O)NCc3ccco3)n2c2ccccc12	6.63
COc1ccccc1NC(=S)N(Cc1ccco1)Cc1cc2cc(C)cc(C)c2[nH]c1=O	7
COc1cccc(N2CCN(C(=O)c3ccc(CS(=O)c4ccc(Cl)cc4)o3)CC2)c1 (stereo not drawn)	1.48
COc1cc(-c2noc(C)c2C#Cc2ccsc2)cc(OC)c1OC	0.537
COc1nc(C)nc(NC(=O)NS(=O)(=O)c2ccccc2Cl)n1	> 50
COc1cccc(Sc2ccccc2/C=N/NC(N)=O)c1	41.6
CCOc1ccc(C)cc1S(=O)(=O)n1cnc2ccccc21	8.08
Cc1cccc2c(N=Nc3ccc(S(=O)(=O)Nc4ccc(Cl)cc4)cc3[N+](=O)[O-])c(O)[nH]c12	> 50
COc1ccc(C2c3ccc4ccccc4c3Oc3ncn(CCCO)c(=N)c32)cc1OC (stereo not drawn)	25.5
COc1ccc(C2=NOC(C(=O)NCc3ccccc3)C2)cc1 (stereo not drawn)	2.42
CCc1cc(-c2nnn(CCC3COCCO3)c2CC)ccc1-c1cn(Cc2ccc3ccccc3c2)nn1 (stereo not drawn)	0.6
CC1(C(=O)NCc2ccccc2)Cc2c(-c3ccc(C(N)=O)cc3)ccnc2O1 (stereo not drawn)	5.22
CCc1ccccc1N(C)S(=O)(=O)c1ccc(-c2cc(C)no2)s1	6.87
COc1cc(OC)c(-c2c3cc(O)c(=O)cc-3oc3cc(O)c(O)cc23)cc1OC	8.08
CCN(CC)C1=CC2=CC(=C(C#N)C#N)CCC2CC1 (stereo not drawn)	0.948
O=C(c1ccc(Br)cc1)c1cc([N+](=O)[O-])ccc1N1CCOCC1	1.69
COc1ccc(C2CN=NC23CCc2ccccc2C3=O)cc1 (stereo not drawn)	38.9
CC(C)Nc1ccc(Nc2ccnc3cc4ccccc4cc23)cc1	7.34
COc1ccc(OC)c(Nc2cc(C)nc3ccc(C)cc23)c1	10.7

SMILES	AC50 [µM]
CCOC(=O)c1ccc(-c2c(-c3cc(OC)c(OC)c(OC)c3)noc2C)cc1F	1.2
COc1ccc(NC(=O)c2cc(S(=O)(=O)N3CCOCC3)ccc2C)cc1S(=O)(=O)N1CCOCC1	> 50
CCOc1ccc(C(=O)N[C@H](C(=O)Nc2cccc(S(=O)(=O)N3CCCCC3)c2)C(C)C)cc1	46.3
COc1ccc(-c2ccc(OC)c(OC)c2OC)cc1	3.92
Cc1cc(Nc2ccc(Br)cc2)nc2ccccc12	21.1
CCN(CC)CCCNc1nc2ccccc2c2nc(-c3ccncc3)nn12	6.34
O=C(NCCCN1CCOCC1)c1cc(S(=O)(=O)N2CCOCC2)c(Cl)cc1Cl	> 50
Cc1cccc(Nc2nc(N)nc(-c3oc4ccccc4c3C)n2)c1	6.65
O=C(CCC(=O)N1CCOc2ccc(Cl)cc21)N1CCN(c2ccccn2)CC1	> 50
COc1cc(C(=O)Nc2ccc(C)cc2)c2ccccc2n1	1.26
Cc1cc(NCc2ccccn2)n2nc(C)c(-c3ccccc3)c2n1	4.77
Cc1ccc(C(=O)N/N=C/c2cc(Br)ccc2O)cn1	0.672
COC(=O)c1ccc(C(=O)NC2CCCc3c2cnn3-c2ccc(C)c(C)c2)cc1 (stereo not drawn)	1.02
N#CC1=C(N)Oc2cc(N)ccc2C1c1cccc(F)c1 (stereo not drawn)	3.15
COC(=O)c1cc(C(=O)N2CCN(c3cccc(Cl)c3)CC2)cc([N+](=O)[O-])c1	0.383
COc1ccc([N+](=O)[O-])cc1Nc1c2ccccc2nc2ccccc12	2.62
Cc1nnc(NC(=O)CSc2nccn2-c2cccc(C)c2C)s1	7.08
Cc1cccc(N2CCN(S(=O)(=O)c3cc(-c4cc(C)no4)ccc3C)CC2C)c1 (stereo not drawn)	2.57
COc1ccc(S(=O)(=O)Nc2cc3c(cc2C(C)=O)OCO3)cc1	13.9
CCOC(=O)c1[nH]c(C)c(/C(O)=C2\C(=O)C(=O)N(CCCN3CCOCC3)C2c2cccs2)c1C (stereo not drawn)	19.4
COc1ccccc1Nc1c2c(nc3ccccc13)CCC2	6.89
Fc1ccccc1/C=N/NC(=S)Nc1ccc(Cl)cc1Cl	1.62
COc1cccc(Nc2nc(-c3sc(NC(=O)c4ccccc4)nc3C)cs2)c1	11.6

SMILES	AC50 [µM]
CCC1=Nc2cc(C(=O)NCc3cccnc3)ccc2Sc2ccc(C)cc21	6.64
COc1ccc(O)c(/C=N/NC(=O)c2ccc(N3CCCC3=O)cc2)c1	8.14
Cc1cc(C)c2nc(Cl)c(CN(Cc3ccco3)C(=O)Nc3ccccc3C)cc2c1	2.87
COc1ccc(C2=Nn3c(nnc3-c3ccccc3F)SC2)cc1OC1CCOC1 (stereo not drawn)	22.3
Cc1nn(S(=O)(=O)c2ccc(Cl)cc2)c(C)c1Sc1ccc([N+](=O)[O-])cc1	> 32
Nc1[nH]nc2ncc3cc4ccccc4nc3c12	17.7
O=C(O)c1ccccc1-c1c2cc(I)c(=O)c(I)c-2oc2c(I)c(O)c(I)cc12	16.7
Cc1cc(C(=O)N/N=C/c2ccc3c(c2)OCO3)c2ccccc2n1	3.76
Cc1ccc2nc(-c3ccc4c(c3)OCCO4)cn2c1	2.33
COc1cc(/C=C2/SC(=Nc3ccc(O)cc3)NC2=O)cc(OC)c1O	8.92
Cc1cc(C(=O)CCC(=O)NC(C)c2ccc(S(N)(=O)=O)cc2)c(C)s1 (stereo not drawn)	> 50
Cc1ccc(/C=N/NC(=O)C2COc3ccccc3O2)s1 (stereo not drawn)	7.28
Nc1ccc2c3c(cccc13)C(=O)N(c1ccccc1)C2=O	16
COc1ccc(-c2oc3ccc(-c4cc(OC)c(OC)c(OC)c4)cc3c2C#Cc2ccccn2)cc1	26.7
C=CC(C)(C)c1[nH]cnc1/C=C1\NC(=O)C(C(C)C)NC1=O (stereo not drawn)	40.2
NS(=O)(=O)c1ccc(Cl)c(S(N)(=O)=O)c1	1.16
CC(C)(C)C1COc2ccccc2N1C(=O)c1cccc(Cl)c1 (stereo not drawn)	1.63
COC(=O)C1CC23C=CCN4CCC5(c6ccccc6NC15C2C)C43 (stereo not drawn)	4.17
COc1cc(-c2nccc3cc4c(cc23)OCO4)cc(OC)c1OC	6.02
CCN[C@H]1CN(CCCOC)S(=O)(=O)c2sc(S(N)(=O)=O)cc21	0.0398
